# Experimental data from patent US12544395B2, “Combination compositions comprising a beta-lactamase inhibitor and uses thereof” (priority 2018, dated 2026).
# Tests used:
# Assay type in all cases: cell-based
# [1] = tested on: K. pneumoniae BAA 1705; experiment: Broth microdilution MIC (strain KPC-producing)
# [2] = tested on: E. coli Si-FDL-GES; experiment: microbe, parasite or virus in culture
# [3] = tested on: K. pneumoniae KP 4; experiment: Broth microdilution MIC (strain enzymes: SHV-2a, SHV-5, TEM-1)
# [4] = tested on: K. pneumoniae KI (KCl); experiment: Broth microdilution MIC (strain enzymes: TEM-10)
# [5] = tested on: E. coli SI-NO36; experiment: Broth microdilution MIC (strain enzymes: SHV-11, TEM-1)
# [6] = tested on: E. coli 1924; experiment: Broth microdilution MIC (strain enzymes: TEM-12); settings: with inhibitor at 1 μg/mL
smiles,measurement,setting,value
"CCC(=O)N[C@H]1Cc2cccc(C(=O)O)c2OB1O [Compound 2, (R)-2-hydroxy-3-propionamido-3,4-dihydro-2H-benzo[e][1,2]oxaborinine-8-carboxylic acid]",MIC of cefalexin (LEX),[1]; with inhibitor at 2 μg/mL,2 µg/mL
same,MIC of cefdinir (CDR),[1]; with inhibitor at 2 μg/mL,2 µg/mL
same,MIC of cefixime (CFM),[1]; with inhibitor at 2 μg/mL,0.5 µg/mL
same,MIC of ceftibuten (CTB),[1]; with inhibitor at 2 μg/mL,0.5 µg/mL
same,MIC of cefalexin (LEX),[1]; with inhibitor at 4 μg/mL,1 µg/mL
same,MIC of cefdinir (CDR),[1]; with inhibitor at 4 μg/mL,1 µg/mL
same,MIC of cefixime (CFM),[1]; with inhibitor at 4 μg/mL,0.25 µg/mL
same,MIC of ceftibuten (CTB),[1]; with inhibitor at 4 μg/mL,0.25 µg/mL
same,MIC of cefalexin (LEX),[2]; with inhibitor at 1 μg/mL,0.5 µg/mL
same,MIC of cefdinir (CDR),[2]; with inhibitor at 1 μg/mL,0.5 µg/mL
same,MIC of cefixime (CFM),[2]; with inhibitor at 1 μg/mL,0.25 µg/mL
same,MIC of ceftibuten (CTB),[2]; with inhibitor at 1 μg/mL,0.125 µg/mL
same,MIC of cefalexin (LEX),[2]; with inhibitor at 2 μg/mL,0.5 µg/mL
same,MIC of cefdinir (CDR),[2]; with inhibitor at 2 μg/mL,0.5 µg/mL
same,MIC of cefixime (CFM),[2]; with inhibitor at 2 μg/mL,0.125 µg/mL
same,MIC of ceftibuten (CTB),[2]; with inhibitor at 2 μg/mL,0.125 µg/mL
same,MIC of cefalexin (LEX),[2]; with inhibitor at 4 μg/mL,0.5 µg/mL
same,MIC of cefdinir (CDR),[2]; with inhibitor at 4 μg/mL,0.5 µg/mL
same,MIC of cefixime (CFM),[2]; with inhibitor at 4 μg/mL,0.125 µg/mL
same,MIC of ceftibuten (CTB),[2]; with inhibitor at 4 μg/mL,0.125 µg/mL
same,MIC of cefalexin (LEX),[3]; with inhibitor at 1 μg/mL,0.5 µg/mL
same,MIC of cefdinir (CDR),[3]; with inhibitor at 1 μg/mL,0.5 µg/mL
same,MIC of cefixime (CFM),[3]; with inhibitor at 1 μg/mL,2 µg/mL
same,MIC of ceftibuten (CTB),[3]; with inhibitor at 1 μg/mL,0.25 µg/mL
same,MIC of cefalexin (LEX),[3]; with inhibitor at 2 μg/mL,0.5 µg/mL
same,MIC of cefdinir (CDR),[3]; with inhibitor at 2 μg/mL,0.5 µg/mL
same,MIC of cefixime (CFM),[3]; with inhibitor at 2 μg/mL,0.5 µg/mL
same,MIC of ceftibuten (CTB),[3]; with inhibitor at 2 μg/mL,0.125 µg/mL
same,MIC of cefalexin (LEX),[3]; with inhibitor at 4 μg/mL,0.125 µg/mL
same,MIC of cefdinir (CDR),[3]; with inhibitor at 4 μg/mL,0.125 µg/mL
same,MIC of cefixime (CFM),[3]; with inhibitor at 4 μg/mL,0.25 µg/mL
same,MIC of ceftibuten (CTB),[3]; with inhibitor at 4 μg/mL,0.125 µg/mL
same,MIC of cefalexin (LEX),[4]; with inhibitor at 1 μg/mL,0.125 µg/mL
same,MIC of cefdinir (CDR),[4]; with inhibitor at 1 μg/mL,0.125 µg/mL
same,MIC of cefixime (CFM),[4]; with inhibitor at 1 μg/mL,1 µg/mL
same,MIC of ceftibuten (CTB),[4]; with inhibitor at 1 μg/mL,0.125 µg/mL
same,MIC of cefalexin (LEX),[4]; with inhibitor at 2 μg/mL,0.125 µg/mL
same,MIC of cefdinir (CDR),[4]; with inhibitor at 2 μg/mL,0.125 µg/mL
same,MIC of cefixime (CFM),[4]; with inhibitor at 2 μg/mL,1 µg/mL
same,MIC of ceftibuten (CTB),[4]; with inhibitor at 2 μg/mL,0.06 µg/mL
same,MIC of cefalexin (LEX),[4]; with inhibitor at 4 μg/mL,0.125 µg/mL
same,MIC of cefdinir (CDR),[4]; with inhibitor at 4 μg/mL,0.125 µg/mL
same,MIC of cefixime (CFM),[4]; with inhibitor at 4 μg/mL,0.25 µg/mL
same,MIC of ceftibuten (CTB),[4]; with inhibitor at 4 μg/mL,0.125 µg/mL
same,MIC of cefalexin (LEX),[5]; with inhibitor at 1 μg/mL,0.125 µg/mL
same,MIC of cefdinir (CDR),[5]; with inhibitor at 1 μg/mL,0.125 µg/mL
same,MIC of cefixime (CFM),[5]; with inhibitor at 1 μg/mL,0.5 µg/mL
same,MIC of ceftibuten (CTB),[5]; with inhibitor at 1 μg/mL,0.06 µg/mL
same,MIC of cefalexin (LEX),[5]; with inhibitor at 2 μg/mL,0.125 µg/mL
same,MIC of cefdinir (CDR),[5]; with inhibitor at 2 μg/mL,0.125 µg/mL
same,MIC of cefixime (CFM),[5]; with inhibitor at 2 μg/mL,0.25 µg/mL
same,MIC of ceftibuten (CTB),[5]; with inhibitor at 2 μg/mL,0.125 µg/mL
same,MIC of cefalexin (LEX),[5]; with inhibitor at 4 μg/mL,0.25 µg/mL
same,MIC of cefdinir (CDR),[5]; with inhibitor at 4 μg/mL,0.25 µg/mL
same,MIC of cefixime (CFM),[5]; with inhibitor at 4 μg/mL,0.5 µg/mL
same,MIC of ceftibuten (CTB),[5]; with inhibitor at 4 μg/mL,0.06 µg/mL
same,MIC of cefalexin (LEX),[6],0.5 µg/mL
same,MIC of cefdinir (CDR),[6],0.5 µg/mL
